{
  "source": "patent US10285959B2",
  "about": "“Combination therapies using HDAC inhibitors” (priority 2005, dated 2019)",
  "key": {"[1]": {"tested_on": "HCT116 colon cancer xenograft", "experiment": "HCT116 colon cancer subcutaneous xenograft model", "assay_type": "in vivo, nu/nu mice", "experimental": "The 5-FU dose was set at 15 mg/kg.\nHCT116 colon cancer xenograph. Daily i.p. treatments with PXD101 (morning) and 5-FU (afternoon). Mean/SEM, n=10(9)."}, "[2]": {"tested_on": "P388 i.p. mouse leukemia tumour", "experiment": "P388 mouse leukemia model, survival;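 also: female B6D1F1 mice implanted i.p. with P388 leukemia cells, Kaplan-Meier survival analysis, ILS% equals treated minus vehicle control median survival, divided by control median, times 100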", "description": "P388 mouse leukemia cells were injected intrapertoneally (IP) into B6D1F1 female mice. […] Kaplan-Meier survival distribution graphs are shown for each combination.\nThe percentage Increased Life Span (ILS%) was calculated as the median survival (treatment group) minus median survival (vehicle control) divided by median survival (vehicle control) multiplied with 100:"}, "[3]": {"tested_on": "EGFR protein in A431 cells", "experiment": "Western blot of EGFR protein levels", "assay_type": "cell-based, human", "details": "24 hours treatment", "text": "The blot was reprobed with an anti-actin antibody to control for lane loading."}, "diverse tumor cell lines": {"tested_on": "diverse tumor cell lines", "experiment": "Proliferation of tumor cell lines", "assay_type": "cell-based"}, "Calu-3": {"tested_on": "Calu-3", "experiment": "Growth inhibition/proliferation, PXD101 with Tarceva (CellTiter-Glo)", "assay_type": "cell-based, human", "details": "wtEGFR"}, "HCC-4006": {"tested_on": "HCC-4006", "experiment": "Growth inhibition/proliferation, PXD101 with Tarceva", "assay_type": "cell-based", "details": "mutant EGFR"}, "[4]": {"details": "PXD101(60) mg/kg/treat i.p. daily for 5 days starting day 3"}, "[5]": {"details": "PXD101(100) mg/kg/treat i.p. daily for 5 days starting day 3"}, "[6]": {"details": "5-FU(30) mg/kg/treat i.p. daily for 5 days starting day 3"}},
  "data": [
    {"smiles": "O=C(/C=C/c1cccc(S(=O)(=O)Nc2ccccc2)c1)NO", "note": "[PXD-101]", "values": [
      {"measurement": "tumour growth inhibition", "setting": "[1]; PXD-101 60 and 100 mg/kg q1d x5/week for 2 weeks", "value": "significant tumour growth inhibition"},
      {"measurement": "ILS % (Increased Life Span)", "setting": "[2]; [4]", "value": 30.0, "unit": "%"},
      {"measurement": "Survival time, Max", "setting": "[2]; [4]", "value": 14},
      {"measurement": "Survival time, Median survival", "setting": "[2]; [4]", "value": 13},
      {"measurement": "Survival time, Min", "setting": "[2]; [4]", "value": 12},
      {"measurement": "ILS % (Increased Life Span)", "setting": "[2]; [5]", "value": 20.0, "unit": "%"},
      {"measurement": "Survival time, Max", "setting": "[2]; [5]", "value": 14},
      {"measurement": "Survival time, Median survival", "setting": "[2]; [5]", "value": 12},
      {"measurement": "Survival time, Min", "setting": "[2]; [5]", "value": 11},
      {"measurement": "Cumulative Survival", "setting": "[2]; day 9, PXD101 (60)", "value": 1},
      {"measurement": "Cumulative Survival", "setting": "[2]; day 9, PXD101 (100)", "value": 1},
      {"measurement": "Cumulative Survival", "setting": "[2]; day 10, PXD101 (60)", "value": 1},
      {"measurement": "Cumulative Survival", "setting": "[2]; day 10, PXD101 (100)", "value": 1},
      {"measurement": "Cumulative Survival", "setting": "[2]; day 11, PXD101 (60)", "value": 1},
      {"measurement": "Cumulative Survival", "setting": "[2]; day 11, PXD101 (100)", "value": 0.85},
      {"measurement": "Cumulative Survival", "setting": "[2]; day 12, PXD101 (60)", "value": 0.70},
      {"measurement": "Cumulative Survival", "setting": "[2]; day 12, PXD101 (100)", "value": 0.43},
      {"measurement": "Cumulative Survival", "setting": "[2]; day 13, PXD101 (60)", "value": 0.15},
      {"measurement": "Cumulative Survival", "setting": "[2]; day 13, PXD101 (100)", "value": 0.43},
      {"measurement": "Cumulative Survival", "setting": "[2]; day 14, PXD101 (60)", "value": 0},
      {"measurement": "Cumulative Survival", "setting": "[2]; day 14, PXD101 (100)", "value": 0.15},
      {"measurement": "Cumulative Survival", "setting": "[2]; day 15, PXD101 (100)", "value": 0},
      {"measurement": "level of EGFR protein", "setting": "[3]", "value": "apparently decreases the level of EGFR protein"},
      {"measurement": "IC50", "setting": "diverse tumor cell lines", "value": "0.08 to 2.43", "unit": "µM"}
    ]},
    {"smiles": "O=c1[nH]cc(F)c(=O)[nH]1", "note": "[5-FU, 5-fluorouracil]", "values": [
      {"measurement": "tumour growth inhibition", "setting": "[1]; 5-FU 15 mg/kg", "value": "ineffective"},
      {"measurement": "ILS % (Increased Life Span)", "setting": "[2]; [6]", "value": 60.0, "unit": "%"},
      {"measurement": "Survival time, Max", "setting": "[2]; [6]", "value": 18},
      {"measurement": "Survival time, Median survival", "setting": "[2]; [6]", "value": 16},
      {"measurement": "Survival time, Min", "setting": "[2]; [6]", "value": 15},
      {"measurement": "Cumulative Survival", "setting": "[2]; day 9, 5-FU (30)", "value": 1},
      {"measurement": "Cumulative Survival", "setting": "[2]; day 9, 5-FU (50)", "value": 1.00},
      {"measurement": "Cumulative Survival", "setting": "[2]; day 10, 5-FU (30)", "value": 1},
      {"measurement": "Cumulative Survival", "setting": "[2]; day 10, 5-FU (50)", "value": 0.55},
      {"measurement": "Cumulative Survival", "setting": "[2]; day 11, 5-FU (30)", "value": 1},
      {"measurement": "Cumulative Survival", "setting": "[2]; day 11, 5-FU (50)", "value": 0.15},
      {"measurement": "Cumulative Survival", "setting": "[2]; day 12, 5-FU (30)", "value": 1},
      {"measurement": "Cumulative Survival", "setting": "[2]; day 12, 5-FU (50)", "value": 0.15},
      {"measurement": "Cumulative Survival", "setting": "[2]; day 13, 5-FU (30)", "value": 1},
      {"measurement": "Cumulative Survival", "setting": "[2]; day 13, 5-FU (50)", "value": 0.15},
      {"measurement": "Cumulative Survival", "setting": "[2]; day 14, 5-FU (30)", "value": 1},
      {"measurement": "Cumulative Survival", "setting": "[2]; day 14, 5-FU (50)", "value": 0.15},
      {"measurement": "Cumulative Survival", "setting": "[2]; day 15, 5-FU (30)", "value": 0.85},
      {"measurement": "Cumulative Survival", "setting": "[2]; day 15, 5-FU (50)", "value": 0.15},
      {"measurement": "Cumulative Survival", "setting": "[2]; day 16, 5-FU (30)", "value": 0.55},
      {"measurement": "Cumulative Survival", "setting": "[2]; day 16, 5-FU (50)", "value": 0.15},
      {"measurement": "Cumulative Survival", "setting": "[2]; day 17, 5-FU (30)", "value": 0.15},
      {"measurement": "Cumulative Survival", "setting": "[2]; day 17, 5-FU (50)", "value": 0.15},
      {"measurement": "Cumulative Survival", "setting": "[2]; day 18, 5-FU (30)", "value": 0},
      {"measurement": "Cumulative Survival", "setting": "[2]; day 18, 5-FU (50)", "value": 0.15},
      {"measurement": "Cumulative Survival", "setting": "[2]; day 19, 5-FU (50)", "value": 0.15},
      {"measurement": "Cumulative Survival", "setting": "[2]; day 20, 5-FU (50)", "value": 0.15},
      {"measurement": "Cumulative Survival", "setting": "[2]; day 21, 5-FU (50)", "value": 0.15},
      {"measurement": "Cumulative Survival", "setting": "[2]; day 22, 5-FU (50)", "value": 0.15},
      {"measurement": "Cumulative Survival", "setting": "[2]; day 23, 5-FU (50)", "value": 0.15},
      {"measurement": "Cumulative Survival", "setting": "[2]; day 24, 5-FU (50)", "value": 0}
    ]},
    {"smiles": "C#Cc1cccc(Nc2ncnc3cc(OCCOC)c(OCCOC)cc23)c1", "note": "[Tarceva ®]", "values": [
      {"measurement": "responsiveness of cells to Tarceva", "setting": "Calu-3", "value": "Calu-3 (wtEGFR; moderately responsive to Tarceva ®)"},
      {"measurement": "responsiveness of cells to Tarceva", "setting": "HCC-4006", "value": "HCC-4006 (mutant EGFR; strongly responsive to Tarceva ®)"}
    ]},
    {"smiles": "O=C1[O][Pt]2([NH][C@@H]3CCCC[C@H]3[NH]2)[O]C1=O", "note": "[Oxali, Oxaliplatin]", "values": [
      {"measurement": "Cumulative Survival", "setting": "[2]; day 9, Oxali (5)", "value": 0.45},
      {"measurement": "Cumulative Survival", "setting": "[2]; day 10, Oxali (5)", "value": 0}
    ]},
    {"smiles": "Nc1nc(F)nc2c1ncn2[C@@H]1O[C@H](CO)[C@@H](O)[C@@H]1O", "note": "[Fludarabin, Fludarabine]", "values": [
      {"measurement": "Cumulative Survival", "setting": "[2]; day 8, Fludarabin (50)", "value": 1.00},
      {"measurement": "Cumulative Survival", "setting": "[2]; day 9, Fludarabin (50)", "value": 0.85},
      {"measurement": "Cumulative Survival", "setting": "[2]; day 10, Fludarabin (50)", "value": 0.55},
      {"measurement": "Cumulative Survival", "setting": "[2]; day 11, Fludarabin (50)", "value": 0.40},
      {"measurement": "Cumulative Survival", "setting": "[2]; day 12, Fludarabin (50)", "value": 0.40},
      {"measurement": "Cumulative Survival", "setting": "[2]; day 13, Fludarabin (50)", "value": 0.40},
      {"measurement": "Cumulative Survival", "setting": "[2]; day 14, Fludarabin (50)", "value": 0.40},
      {"measurement": "Cumulative Survival", "setting": "[2]; day 15, Fludarabin (50)", "value": 0.30},
      {"measurement": "Cumulative Survival", "setting": "[2]; day 16, Fludarabin (50)", "value": 0.30},
      {"measurement": "Cumulative Survival", "setting": "[2]; day 17, Fludarabin (50)", "value": 0.15},
      {"measurement": "Cumulative Survival", "setting": "[2]; day 18, Fludarabin (50)", "value": 0.15},
      {"measurement": "Cumulative Survival", "setting": "[2]; day 19, Fludarabin (50)", "value": 0}
    ]}
  ]
}
